Results published in patent publication US6737383B1, “Herbicidal oxadiazolidines” (priority 1999, dated 2004).

Assays:
morningglory = test: Test B pre/postemergence morningglory; assay type: in vivo, Ipomoea hederacea
Outline: (§1)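 Test chemicals in a non-phytotoxic solvent mixture with surfactant were sprayed preemergence onto planted seeds and postemergence onto plants 2 to 18 cm tall (1- to 4-leaf stage). After twelve to sixteen days in a greenhouse, injury was visually rated against untreated controls from 0 (no effect) to 10 (complete control).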

bedstraw = test: Test B pre/postemergence bedstraw; assay type: in vivo, Galium aparine
Outline: as §1

velvetleaf = test: Test B pre/postemergence velvetleaf; assay type: in vivo, Abutilon theophrasti
Outline: as §1

sugar beet = test: Test B pre/postemergence sugar beet; assay type: in vivo, Beta vulgaris
Outline: as §1

wild oat = test: Test B pre/postemergence wild oat; assay type: in vivo, Avena fatua
Outline: as §1

bamyardgrass = test: Test B flood test barnyardgrass; assay type: in vivo, Echinochloa crus-galli
Outline: (§2)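 Read-out is a visual response score from 0 (no effect) to 10 (complete control), assigned by comparison with untreated controls. Treatment was applied at the 2-leaf stage, and plants stayed in the greenhouse for twelve to sixteen days before scoring.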

blackgrass = test: Test B pre/postemergence blackgrass; assay type: in vivo, Alopecurus myosuroides
Outline: as §1

giant foxtail = test: Test B pre/postemergence giant foxtail; assay type: in vivo, Setaria faberii
Outline: as §1

soybean = test: Test B pre/postemergence soybean; assay type: in vivo, Glycine max
Outline: as §1

rice = test: Test B flood test rice; assay type: in vivo, Oryza sativa
Outline: as §2

rape = test: Test B pre/postemergence rape; assay type: in vivo, Brassica napus
Outline: as §1

pigweed = test: Test B pre/postemergence pigweed; assay type: in vivo, Amaranthus retroflexus
Outline: as §1

wheat = test: Test B pre/postemergence wheat; assay type: in vivo, Triticum aestivum
Outline: as §1

duck salad = test: Test B flood test duck salad; assay type: in vivo, Heteranthera limosa
Outline: as §2

purple nutsedge = test: Test B pre/postemergence purple nutsedge; assay type: in vivo, Cyperus rotundus; details: Postemergence
Outline: as §1

smallflower flatsedge = test: Test B flood test smallflower flatsedge; assay type: in vivo, Cyperus difformis
Outline: as §2

[1] = Preemergence, Rate 62 g/ha, scale of 0 to 10 where 0 is no effect and 10 is complete control
[2] = Preemergence, Rate 250 g/ha, scale of 0 to 10 where 0 is no effect and 10 is complete control
[3] = Preemergence, Rate 500 g/ha, scale of 0 to 10 where 0 is no effect and 10 is complete control
[4] = Rate 62 g/ha, Postemergence, scale of 0 to 10 where 0 is no effect and 10 is complete control
[5] = Rate 125 g/ha, Postemergence, scale 0 to 10
[6] = Rate 125 g/ha, Preemergence, scale of 0 to 10 where 0 is no effect and 10 is complete control
[7] = Rate 500 g/ha, Postemergence, scale 0 to 10
[8] = Rate 62 g/ha, headed Pre-emergence (flood test species), scale 0 to 10 (0 no effect, 10 complete control)
[9] = Rate 125 g/ha, Pre-emergence, flood test species, scale 0 to 10 where 0 is no effect and 10 is complete control
[10] = Rate 250 g/ha, Pre-emergence, flood-test species, scale 0 to 10, 0 is no effect, 10 is complete control
[11] = Rate 500 g/ha, Pre-emergence, flood test species, scale 0 to 10 (0 no effect, 10 complete control)

CC(=O)OCCCCn1c(=O)on(C(=O)N(c2ccc(F)cc2)C(C)C)c1=O [Compound 211]
8: Bedstraw plant response rating (bedstraw; [7]) | Plant response rating, Sugarbeets (sugar beet; [3]) | Plant response rating, Giant foxtail (giant foxtail; [3])
1: Plant response rating (0 to 10; 0 is no effect, 10 is complete control), Velvetleaf (velvetleaf; Rate 250 g/ha, Postemergence)
6: Morningglory plant response rating (morningglory; [5]) | Plant response rating (0 to 10; 0 is no effect, 10 is complete control), Morningglory (morningglory; Rate 250 g/ha, Postemergence) | Morningglory plant response rating (morningglory; [7]) | Blackgrass plant response rating (blackgrass; [1])
7: Bedstraw plant response rating (bedstraw; [5]) | Giant foxtail plant response rating (giant foxtail; [2]) | Plant response rating, Redroot pigweed (pigweed; [3])
2: Sugarbeets plant response rating (sugar beet; [5]) | Plant response rating (0 to 10; 0 is no effect, 10 is complete control), Sugarbeets (sugar beet; Rate 250 g/ha, Postemergence) | Sugarbeets plant response rating (sugar beet; [7]) | Blackgrass plant response rating (blackgrass; [4]) | Plant response rating (0 to 10; 0 is no effect, 10 is complete control), Giant foxtail (giant foxtail; Rate 250 g/ha, Postemergence) | Rape plant response rating (rape; [4]) | Rape plant response rating (rape; [5]) | Plant response rating (0 to 10; 0 is no effect, 10 is complete control), Rape (rape; Rate 250 g/ha, Postemergence) | Redroot pigweed plant response rating (pigweed; [4])
9: Blackgrass plant response rating (blackgrass; [2]) | Plant response rating, Blackgrass (blackgrass; [3]) | Blackgrass plant response rating (blackgrass; [6])
3: Blackgrass plant response rating (blackgrass; [5]) | Giant foxtail plant response rating (giant foxtail; [1]) | Giant foxtail plant response rating (giant foxtail; [7]) | Soybean plant response rating (soybean; [4]) | Rape plant response rating (rape; [7]) | Redroot pigweed plant response rating (pigweed; [2])
0: Morningglory plant response rating (morningglory; [1]) | Morningglory plant response rating (morningglory; [2]) | Plant response rating, Morningglory (morningglory; [3]) | Morningglory plant response rating (morningglory; [6]) | Bedstraw plant response rating (bedstraw; [1]) | Bedstraw plant response rating (bedstraw; [2]) | Bedstraw plant response rating (bedstraw; [6]) | Velvetleaf plant response rating (velvetleaf; [1]) | Velvetleaf plant response rating (velvetleaf; [2]) | Plant response rating, Velvetleaf (velvetleaf; [3]) | Velvetleaf plant response rating (velvetleaf; [4]) | Velvetleaf plant response rating (velvetleaf; [5]) | Velvetleaf plant response rating (velvetleaf; [6]) | Sugarbeets plant response rating (sugar beet; [1]) | Sugarbeets plant response rating (sugar beet; [2]) | Sugarbeets plant response rating (sugar beet; [4]) | Sugarbeets plant response rating (sugar beet; [6]) | Wild oats plant response rating (wild oat; [1]) | Wild oats plant response rating (wild oat; [4]) | Wild oats plant response rating (wild oat; [5]) | Plant response rating (0 to 10; 0 is no effect, 10 is complete control), Wild oats (wild oat; Rate 250 g/ha, Postemergence) | Barnyardgrass plant response rating (bamyardgrass; [8]) | Barnyardgrass plant response rating (bamyardgrass; [9]) | Barnyardgrass plant response rating (bamyardgrass; [10]) | Barnyardgrass plant response rating (bamyardgrass; [11]) | Giant foxtail plant response rating (giant foxtail; [4]) | Giant foxtail plant response rating (giant foxtail; [5]) | Soybean plant response rating (soybean; [1]) | Soybean plant response rating (soybean; [2]) | Plant response rating, Soybean (soybean; [3]) | Soybean plant response rating (soybean; [6]) | Rice plant response rating (rice; [8]) | Rice plant response rating (rice; [9]) | Rice plant response rating (rice; [10]) | Rice plant response rating (rice; [11]) | Rape plant response rating (rape; [1]) | Rape plant response rating (rape; [2]) | Rape plant response rating (rape; [6]) | Redroot pigweed plant response rating (pigweed; [1]) | Redroot pigweed plant response rating (pigweed; [6]) | Wheat plant response rating (wheat; [1]) | Wheat plant response rating (wheat; [2]) | Wheat plant response rating (wheat; [4]) | Wheat plant response rating (wheat; [5]) | Wheat plant response rating (wheat; [6]) | Plant response rating (0 to 10; 0 is no effect, 10 is complete control), Wheat (wheat; Rate 250 g/ha, Postemergence) | Ducksalad plant response rating (duck salad; [8]) | Ducksalad plant response rating (duck salad; [9]) | Ducksalad plant response rating (duck salad; [10]) | Ducksalad plant response rating (duck salad; [11]) | Nutsedge plant response rating (purple nutsedge; Rate 62 g/ha, scale of 0 to 10 where 0 is no effect and 10 is complete control) | Nutsedge plant response rating (purple nutsedge; Rate 125 g/ha, scale 0 to 10) | Plant response rating (0 to 10; 0 is no effect, 10 is complete control), Nutsedge (purple nutsedge; Rate 250 g/ha) | Nutsedge plant response rating (purple nutsedge; Rate 500 g/ha, scale 0 to 10) | S. Flatsedge plant response rating (smallflower flatsedge; [8]) | S. Flatsedge plant response rating (smallflower flatsedge; [9]) | S. Flatsedge plant response rating (smallflower flatsedge; [10]) | S. Flatsedge plant response rating (smallflower flatsedge; [11])
4: Morningglory plant response rating (morningglory; [4]) | Bedstraw plant response rating (bedstraw; [4]) | Wild oats plant response rating (wild oat; [6]) | Plant response rating (0 to 10; 0 is no effect, 10 is complete control), Blackgrass (blackgrass; Rate 250 g/ha, Postemergence) | Blackgrass plant response rating (blackgrass; [7]) | Giant foxtail plant response rating (giant foxtail; [6]) | Soybean plant response rating (soybean; [5]) | Plant response rating (0 to 10; 0 is no effect, 10 is complete control), Soybean (soybean; Rate 250 g/ha, Postemergence) | Soybean plant response rating (soybean; [7]) | Plant response rating, Rape (rape; [3]) | Redroot pigweed plant response rating (pigweed; [5]) | Plant response rating (0 to 10; 0 is no effect, 10 is complete control), Redroot pigweed (pigweed; Rate 250 g/ha, Postemergence)
10: Plant response rating, Bedstraw (bedstraw; [3])
5: Wild oats plant response rating (wild oat; [2]) | Plant response rating, Wild oats (wild oat; [3]) | Redroot pigweed plant response rating (pigweed; [7]) | Plant response rating, Wheat (wheat; [3])
